The values below come from patent US20260007681A1, “INDOLE DERIVATIVES AS ESTROGEN RECEPTOR DEGRADERS” (REGENTS OF THE UNIVERSITY OF MICHIGAN, priority 2022, published 2026).

For orientation: IC50 means the concentration that gives 50% inhibition. As a reminder, the DC50 is the midpoint of the concentration-degradation curve. By Dmax is commonly meant the largest share of the target that was removed.

Like-named read-outs stand apart in the source and are kept apart here.

The target of one experiment is CRBN/DDB1 (Homo sapiens (Human), UniProt Q96SW2). Type of experiment: binding. Particulars: His tagged CRBN+DDB-DLS7+CXU4, Cy5-labeled Thalidomide probe, one hour incubation; read-out: CRBN HTRF IC50. As for the experimental part: The binding potency was determined using H-TRF assay technology (Perkin Elmer). Compounds were serially diluted in DMSO and 0.2 μL volume was transferred to white 384-well plate.
CRBN/DDB1, sequence (Q96SW2 whole entry): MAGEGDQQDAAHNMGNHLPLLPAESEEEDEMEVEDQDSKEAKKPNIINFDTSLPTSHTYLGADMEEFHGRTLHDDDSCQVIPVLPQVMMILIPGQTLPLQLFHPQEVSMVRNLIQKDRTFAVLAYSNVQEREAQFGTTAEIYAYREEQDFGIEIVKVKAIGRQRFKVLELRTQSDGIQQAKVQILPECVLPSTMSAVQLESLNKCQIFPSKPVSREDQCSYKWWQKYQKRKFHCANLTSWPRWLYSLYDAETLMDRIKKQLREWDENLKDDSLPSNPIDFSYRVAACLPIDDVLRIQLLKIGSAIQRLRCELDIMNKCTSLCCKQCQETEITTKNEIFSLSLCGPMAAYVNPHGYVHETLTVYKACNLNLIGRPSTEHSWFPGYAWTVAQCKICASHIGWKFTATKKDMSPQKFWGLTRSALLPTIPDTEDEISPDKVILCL
CRBN/DDB1, sequence (Q16531 whole entry partner): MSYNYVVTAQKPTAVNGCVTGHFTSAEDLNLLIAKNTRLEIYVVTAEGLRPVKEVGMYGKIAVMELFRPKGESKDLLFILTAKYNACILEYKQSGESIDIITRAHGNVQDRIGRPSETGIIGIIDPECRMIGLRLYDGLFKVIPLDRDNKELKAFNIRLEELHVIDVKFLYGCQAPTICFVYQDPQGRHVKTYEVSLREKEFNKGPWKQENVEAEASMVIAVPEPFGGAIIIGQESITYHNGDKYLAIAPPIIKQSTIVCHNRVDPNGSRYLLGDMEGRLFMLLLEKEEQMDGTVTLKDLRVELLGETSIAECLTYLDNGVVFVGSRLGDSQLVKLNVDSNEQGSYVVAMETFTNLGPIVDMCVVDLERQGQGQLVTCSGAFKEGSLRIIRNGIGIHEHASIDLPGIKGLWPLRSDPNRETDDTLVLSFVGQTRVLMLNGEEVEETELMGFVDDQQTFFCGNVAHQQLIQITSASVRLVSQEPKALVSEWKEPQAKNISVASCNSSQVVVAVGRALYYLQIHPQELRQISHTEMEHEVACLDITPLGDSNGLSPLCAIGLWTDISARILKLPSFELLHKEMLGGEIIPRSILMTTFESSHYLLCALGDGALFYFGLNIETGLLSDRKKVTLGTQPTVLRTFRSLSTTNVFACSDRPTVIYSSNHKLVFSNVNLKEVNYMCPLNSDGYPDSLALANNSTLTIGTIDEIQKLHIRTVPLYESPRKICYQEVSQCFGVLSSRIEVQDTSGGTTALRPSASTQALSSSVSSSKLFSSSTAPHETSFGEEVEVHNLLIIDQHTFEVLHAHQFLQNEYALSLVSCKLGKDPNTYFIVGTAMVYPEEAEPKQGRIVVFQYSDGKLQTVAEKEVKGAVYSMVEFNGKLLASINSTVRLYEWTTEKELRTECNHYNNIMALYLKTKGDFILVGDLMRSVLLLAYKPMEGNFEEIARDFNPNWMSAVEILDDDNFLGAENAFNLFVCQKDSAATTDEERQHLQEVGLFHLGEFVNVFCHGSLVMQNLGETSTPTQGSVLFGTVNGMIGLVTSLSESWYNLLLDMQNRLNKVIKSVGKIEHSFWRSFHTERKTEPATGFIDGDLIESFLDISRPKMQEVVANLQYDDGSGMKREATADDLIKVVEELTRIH
Background: TR-FRET usually uses a lanthanide donor and a delayed reading to cut background.

In another experiment the target is ER in MCF-7 cells (Homo sapiens (Human), UniProt P03372). As to the kind of experiment: In-cell western (ICW) ER degradation assay in MCF-7 cells (Compounds A1-A70). The class given is cell-based. Particulars: MCF-7 cells, 16 hrs treatment; for DC50: ER degradation, 0.02 to 300 nM, read-out: MCF7 ICW DC50; for MCF7 ICW Dmax (%): maximal ER degradation; for Dmax: MCF7, maximal ER degradation, read-out: MCF7 ICW Dmax (%).
ER in MCF-7 cells, sequence (P03372 whole entry): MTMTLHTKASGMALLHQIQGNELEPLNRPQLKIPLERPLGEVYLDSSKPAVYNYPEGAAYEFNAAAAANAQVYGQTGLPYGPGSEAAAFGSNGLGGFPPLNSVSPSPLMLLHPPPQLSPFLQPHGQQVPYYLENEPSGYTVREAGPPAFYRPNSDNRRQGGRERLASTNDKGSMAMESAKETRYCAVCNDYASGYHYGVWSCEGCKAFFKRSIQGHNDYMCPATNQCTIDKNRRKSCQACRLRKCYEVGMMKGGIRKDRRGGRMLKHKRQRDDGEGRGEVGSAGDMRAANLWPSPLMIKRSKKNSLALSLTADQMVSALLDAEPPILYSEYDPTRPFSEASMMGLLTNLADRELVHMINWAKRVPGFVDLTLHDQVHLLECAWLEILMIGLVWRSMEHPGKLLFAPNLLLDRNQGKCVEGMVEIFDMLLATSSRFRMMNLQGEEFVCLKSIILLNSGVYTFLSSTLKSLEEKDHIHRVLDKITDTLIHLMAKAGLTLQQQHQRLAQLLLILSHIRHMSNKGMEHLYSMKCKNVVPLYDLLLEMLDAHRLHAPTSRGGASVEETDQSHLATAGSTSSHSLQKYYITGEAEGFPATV

A further experiment addresses ERα_LBD(GST) (Homo sapiens (Human), UniProt P03372). The experiment is described as follows: IC50 measurements for binding to ERα_LBD (GST), LanthaScreen TR-FRET ERα competitive binding assay. The note with it: 4 nM ERα_LBD(GST), 3 nM Fluormone ES2 Green tracer, 60 min; read-out: ERα HTRF IC50. As for the experimental part:
• 1. ERα_LBD(GST) protein: 4 nM • 2. Tb Anti-GST: 2 nM • 3. Fluormone ES2 Green tracer: 3 nM • 4. Incubation time: 60 min • 5. DMSO: 1% • 6. Assay buffer: Adding 1M DTT to Nuclear receptor Buffer K for final 5 mM DTT. • 7. ZPE: 1% DMSO • 8. HPE: 1 μM ARV_471 • 9. LanthaScreen® TR-FRET ERα Competitive Binding Assay (ThermoFisher, #A15887)
• 1) Cherry pick 2 μL 10 mM compound stock to column 1 of a 384 intermediate plate • 2) Add 18 μL DMSO to column 1 to dilute compound to 1 mM. • 3) Transfer 10 μL 1 mM compound to column 1 of a LDV plate. • 4) Add 6 μl DMSO to column 2-10 of the LDV plate. • 5) Compounds undergo 3-fold serial dilution (3 μL+6 μL) in DMSO. • 6) Transfer 120 nL compound solution to assay plate. • ZPE: 120 nL 100% DMSO
Prepare complete nuclear receptor buffer K by adding 1 M DTT to nuclear receptor buffer K for a final concentration of 5 mM DTT. Complete nuclear receptor buffer K must be prepared fresh daily. Prepare 2X protein solution using complete nuclear receptor buffer K containing 8 nM ERα_LBD(GST) and 4 nM Tb Anti-GST. Then, prepare 2× Fluormone ES2 Green tracer (6 nM) using complete nuclear receptor buffer K. Add 6 μL 2× Fluormone ES2 green tracer into a compound plate (PerkinElmer 6008289) by dragonfly with one-tips-addition. Subsequently, add 6 μL 2× protein solution into the plate. Briefly and gently mix the 384-well plate on a plate shaker and incubate at room temperature protected from light for 60 min. The plate is sealed with a cover to minimize evaporation. Read the plate at wavelengths of 520 nm and 495 nm. Calculate the TR-FRET ratio by dividing the emission signal at 520 nm by the emission signal at 495 nm. Generate a binding curve by plotting the emission ratio vs. the log [ligand]. To determine the IC50 value, fit the data using XL-fit for a sigmoidal dose-response.

A further experiment addresses ER in T47D cells (Homo sapiens (Human), UniProt P03372). The experiment is described as follows: In-cell western (ICW) ER degradation assay in T47D cells (Compounds A1-A70). The class given is cell-based. The note with it: T47D cells, 16 hrs treatment; for DC50: ER degradation, 0.02 to 300 nM; for Dmax: read-out: T47D ICW Dmax (%).

ER in T47D cells, sequence (P03372 whole entry): as above
ERα_LBD(GST), sequence (P03372 311-547): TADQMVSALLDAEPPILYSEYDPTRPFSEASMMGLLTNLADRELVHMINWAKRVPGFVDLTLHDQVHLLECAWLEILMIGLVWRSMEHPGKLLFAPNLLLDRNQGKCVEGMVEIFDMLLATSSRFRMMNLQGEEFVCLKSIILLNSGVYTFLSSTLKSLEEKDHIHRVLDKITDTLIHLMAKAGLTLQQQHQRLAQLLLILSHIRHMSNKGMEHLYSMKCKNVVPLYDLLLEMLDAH

On to `COc1cc(N2CCC(CN3CCN4c5cc6c(cc5OC[C@@H]4C3)C(=O)N([C@H]3CCC(=O)NC3=O)C6)CC2)ccc1[C@@H]1c2[nH]c3ccccc3c2C[C@@H](C)N1CC(F)F` [Compound A29, (S)-3-((S)-3-((1-(4-((1R,3R)-2-(2,2-difluoroethyl)-3-methyl-2,3,4,9-tetrahydro-1H-pyrido[3,4-b]indol-1-yl)-3-methoxyphenyl)piperidin-4-yl)methyl)-8-oxo-1,2,3,4,4a,5,8,10-octahydro-9H-pyrazino[1′,2′:4,5][1,4]oxazino[2,3-f]isoindol-9-yl)piperidine-2,6-dione], for which the half-maximal inhibitory concentration (IC50) at CRBN/DDB1 was 500 to 5000 nM; on ERα_LBD(GST), under 10 nM. For the same compound, the DC50 on ER in MCF-7 cells and on ER in T47D cells was under 1 nM each time. In addition, the “MCF7 ICW Dmax (%)” value on ER in MCF-7 cells was “B (“B”: >50% and <75%)”. The “T47D ICW Dmax (%)” value on ER in T47D cells (maximal ER degradation) is recorded as “A (“A”: >=75%)”.
With `C[C@@H]1Cc2c([nH]c3ccccc23)[C@@H](c2cnc(N3CCC(CN4CCC5(CC4)COc4cc6c(cc45)CN(C4CCC(=O)NC4=O)C6=O)CC3)nc2)N1CC(F)(F)CO` (stereo partly drawn) [Compound A36, 3-(1′-((1-(5-((1R,3R)-2-(2,2-difluoro-3-hydroxypropyl)-3-methyl-2,3,4,9-tetrahydro-1H-pyrido[3,4-b]indol-1-yl)pyrimidin-2-yl)piperidin-4-yl)methyl)-7-oxo-5,7-dihydro-2H,6H-spiro[furo[2,3-f]isoindole-3,4′-piperidin]-6-yl) piperidine-2,6-dione], the IC50 was 50 to 500 nM on CRBN/DDB1 and under 10 nM at ERα_LBD(GST). The DC50 was 1 to 10 nM at ER in MCF-7 cells and under 1 nM on ER in T47D cells. The Dmax was in the range of 25 to 50% on ER in MCF-7 cells and 50 to 75% on ER in T47D cells (maximal ER degradation).
As to `COc1cc(N2CCC(CN3CCN4c5ccc6c(c5OC[C@H]4C3)CN([C@@H]3CCC(=O)NC3=O)C6=O)CC2)ccc1[C@@H]1c2[nH]c3ccccc3c2C[C@@H](C)N1CC(F)F` [Compound A37, (R)-3-((R)-7-((1-(4-((1R,3R)-2-(2,2-difluoroethyl)-3-methyl-2,3,4,9-tetrahydro-1H-pyrido[3,4-b]indol-1-yl)-3-methoxyphenyl)piperidin-4-yl)methyl)-1-oxo-1,3,5,5a,6,7,8,9-octahydro-2H-pyrazino[1′,2′:4,5][1,4]oxazino[2,3-e]isoindol-2-yl)piperidine-2,6-dione], the IC50 at CRBN/DDB1 is over 5000 nM; on ERα_LBD(GST), under 10 nM. Also, the 50% degradation concentration (DC50) on ER in MCF-7 cells and on ER in T47D cells was under 1 nM in each case. The Dmax is 50 to 75% at ER in MCF-7 cells and over 75% at ER in T47D cells (T47D, maximal ER degradation).
As to `COc1cc(N2CCC(CN3CCN4c5ccc6c(c5OC[C@@H]4C3)CN([C@H]3CCC(=O)NC3=O)C6=O)CC2)ccc1[C@@H]1c2[nH]c3ccccc3c2C[C@@H](C)N1CC(F)F` [Compound A45, (S)-3-((S)-7-((1-(4-((1R,3R)-2-(2,2-difluoroethyl)-3-methyl-2,3,4,9-tetrahydro-1H-pyrido[3,4-b]indol-1-yl)-3-methoxyphenyl)piperidin-4-yl)methyl)-1-oxo-1,3,5,5a,6,7,8,9-octahydro-2H-pyrazino[1′,2′:4,5][1,4]oxazino[2,3-e]isoindol-2-yl)piperidine-2,6-dione], the IC50 was over 5000 nM on CRBN/DDB1 and under 10 nM on ERα_LBD(GST). Besides, the DC50 at ER in MCF-7 cells and at ER in T47D cells was under 1 nM in each case. For the same compound, on ER in MCF-7 cells, the “MCF7 ICW Dmax (%)” value is on record as “A (“A”: >=75%)”. Moreover, the Dmax on ER in T47D cells (T47D, maximal ER degradation) was over 75%.
For `C[C@@H]1Cc2c([nH]c3ccccc23)[C@@H](c2cnc(N3CCC4(CC3)C[C@@H](CN3CCN5c6ccc(C(=O)N[C@H]7CCC(=O)NC7=O)nc6OC[C@H]5C3)CO4)nc2)N1CC(F)F` [Compound A63, (4aR)-3-((8-(5-((1R,3R)-2-(2,2-difluoroethyl)-3-methyl-2,3,4,9-tetrahydro-1H-pyrido[3,4-b]indol-1-yl)pyrimidin-2-yl)-1-oxa-8-azaspiro[4.5]decan-3-yl)methyl)-N—((S)-2,6-dioxopiperidin-3-yl)-1,2,3,4,4a,5-hexahydropyrazino[1,2-d]pyrido[2,3-b][1,4]oxazine-8-carboxamide], the IC50 on CRBN/DDB1 was 500 to 5000 nM; on ERα_LBD(GST), at least 10 nM. The DC50 at ER in MCF-7 cells and on ER in T47D cells was 1 to 10 nM each time. Besides, the Dmax was 50 to 75% on ER in MCF-7 cells and 50 to 75% at ER in T47D cells (T47D, maximal ER degradation).
`C[C@H]1Cc2c([nH]c3ccccc23)[C@H](c2cnc(N3CCC4(CC3)C[C@H](CN3CCN5c6cc7c(cc6OC[C@@H]5C3)C(=O)N([C@@H]3CCC(=O)NC3=O)C7)CO4)nc2)N1CC(F)F` [Compound A69, (R)-3-((S)-3-(((R)-8-(5-((1S,3S)-2-(2,2-difluoroethyl)-3-methyl-2,3,4,9-tetrahydro-1H-pyrido[3,4-b]indol-1-yl)pyrimidin-2-yl)-1-oxa-8-azaspiro[4.5]decan-3-yl)methyl)-8-oxo-1,2,3,4,4a,5,8,10-octahydro-9H-pyrazino[1′,2′:4,5][1,4]oxazino[2,3-f]isoindol-9-yl)piperidine-2,6-dione]: the values for the IC50 at CRBN/DDB1 and at ERα_LBD(GST) were 50 to 500 nM and at least 10 nM, respectively. Moreover, the DC50 on ER in MCF-7 cells and at ER in T47D cells was under 1 nM in each case. Further, the Dmax is over 75% on ER in MCF-7 cells and over 75% on ER in T47D cells (T47D, maximal ER degradation).
